Measurements reported in a melting point compilation (Tetko et al.; mined from patent text by program, amines drawn as free bases though some values may be those of a salt).

| melting point | SMILES |
| --- | --- |
| 138 to 141 °C | CCOC(=O)C(=NOCC(=O)OCC(Cl)(Cl)Cl)c1csc(N)n1 |
| 145 to 147 °C | O=C(NCCCCOc1cc(CN2CCCCC2)ccn1)c1cn[nH]c1 |
| 103 to 118 °C | COc1cc(OCc2ccncc2)ccc1/C=C/c1cc(/C=C/c2ccc3cc[nH]c3c2)n[nH]1 |
| 166 to 168 °C | O=C(O)Cc1ccc(Br)cc1[N+](=O)[O-] |
| 159 to 163 °C | COc1cccc(CNC(=O)c2cc3c(=O)n(CC#N)c(=O)n(C)c3s2)c1 |
| 124 to 126 °C | COc1ccc(N2CCN(c3c(C)c(C)c4c(c3C)C(O)(CCc3ccccc3)C(C)(C)O4)CC2)cc1 (configuration not stated) |
| 130 °C | CCCN(CCCc1c[nH]c2c(F)cc(F)cc12)C1COc2c(C(N)=O)ccc(F)c2C1 (configuration not stated) |
| 55 to 57 °C | N#CC1(c2ccc(OCc3ccc(F)cc3)c(OC3CCCC3)c2)CCC(=NO)CC1 (configuration not stated) |
| 94 to 95 °C | Cc1cccc(-c2ccc3c(ccn3Cc3ccc(C(C)(C)C)cc3)c2)c1 |
| 59.1 °C | Cc1cc(C(C)(C)C)cc(C)c1S(F)(F)F |
| 210 to 212 °C | NC(=O)N1CC(Sc2ccc(Cl)cc2)C1 |
| 203 °C | Cc1ncn(-c2cc(F)ccc2CNC(=O)c2nc3n(c(=O)c2OCc2ccccc2)CCOC3(C)C)n1 |
| 189 to 190 °C | O=c1ccn(-c2cccc(C(F)(F)F)c2)nc1-c1ccnn1-c1ccccn1 |
| 220 to 222 °C | COc1ccn2nc(-c3ccccc3F)c(-c3ccc(=O)n(C)n3)c2c1 |
| 60 to 61 °C | C=CCOc1ccc2ccc(C(=O)OCC)cc2c1 |
| 119 °C | O=C(NCC1CCNCC1)c1ccccc1 |
| 137 to 139 °C | COc1ccccc1Sc1ccc(C=O)c(Cl)c1Cl |
| 88 to 90 °C | O=CCCNC(=O)c1ccc[nH]1 |
| 82 to 84 °C | CSc1nn(C(C)(C)C)c(=O)c(Cl)c1C1C=CC(C(C)(C)C)CC1 (configuration not stated) |
| 263 to 265 °C | O=C(c1c[nH]c2cc([N+](=O)[O-])ccc12)C(F)(F)F |
| 89 to 90 °C | CCOC(=O)CN1CCc2cc3c(cc2CC1)OCO3 |
| 157 to 158 °C | Cc1ccc(S(=O)(=O)N(c2ccc(C#N)cc2C#N)C(C)C)cc1 |
| 93 °C | OCCCSC(=S)Nc1ccccn1 |
| 158 °C | CSc1ccc2ccc(N)nc2n1 |

| melting point | SMILES |
| --- | --- |
| 306 to 308 °C | Oc1cc(-c2ccc(Cl)cc2)nc2ccnn12 |
| 121 to 122 °C | CCCc1c(OCc2ccccc2)ccc2c(=O)cc(C(=O)OCC)[nH]c12 |
| 120 to 122 °C | O=C(NCCO)Nc1ccccc1 |
| 130 to 135 °C | COc1ccc(C2c3[nH]c4ccccc4c3CCN2C(=O)C=Cc2ccc(C(F)(F)F)cc2)cc1 (configuration not stated) |
| 160 to 162 °C | O=S1(=O)NCN(C2CC2)c2c1ccc(F)c2F |
| 204 to 205 °C | O=c1c(O)c(-c2ccccn2)oc2ccc(OCc3ccc(F)cc3)cc12 |
| 260 °C | COc1ccc2c(c1)CCN(CCc1ccc(NC(=O)c3cccc4c(=O)c5cccc(OC)c5[nH]c34)cc1)C2 |
| 85 to 98 °C | CC(C)(CCC(=O)N[C@H](Cc1ccc(-c2ccccc2)cc1)C(=O)NCCCCNc1ncccn1)C(=O)O |
| 104 °C | CCOP(=O)(OCC)c1cc2nc(OCc3ccccc3)c(OCc3ccccc3)nc2c2c1CN(C)CC2 |
| 160 to 162 °C | C=C(C(=O)c1ccc(OCC(=O)O)c(Cl)c1Cl)C(C)(C)C |
| 113 °C | CCN(CC)C(=O)c1ccc(-c2ccc(-c3ccccc3)c(-c3ccc4c(c3)C(C)(C)CCC4(C)C)c2)cc1 |
| 241 to 245 °C | CCOc1cc2ncc3c(N)nc(-c4cccnc4)cc3c2cc1OCC |
| 258 to 261 °C | NS(=O)(=O)c1ccc2c(c1)C(=O)c1ccccc1C2=O |
| 47 to 49 °C | CCOC(=O)C(NC(=O)OC(C)(C)C)C(c1ccc(O)cc1)S(=O)(=O)C(F)(F)F (configuration not stated) |
| 111 to 112 °C | Nc1ncnc2c1c(-c1ccc(Oc3ccccc3)cc1)cn2CCN1C(=O)c2ccccc2C1=O |
| 190 to 191 °C | CCc1c(-c2ccc(OCc3ccccc3)cc2)c2cc(C(C)=O)c3ccc(CO)c1n32 |
| 179 to 180 °C | O=S(=O)(NCC(O)(Cn1cncn1)c1ccc(Cl)cc1Cl)c1ccc2ccccc2c1 (configuration not stated) |
| 59 °C | Cc1cc(C=O)c(OCCCCCCCCc2ccccc2)c(C=O)c1 |
| 50 to 53 °C | CC(O)=C(C#N)C(=O)Cc1ccc(Cl)cc1 |
| 121 to 123 °C | NS(=O)(=O)c1ccccc1S(=O)(=O)N1CCC1 |
| 79 to 80 °C | C#CCOc1cc(CO)cc(OCC#C)c1 |
| 241 to 242 °C | N#CCNC(=O)c1ncn2c1CN(C(=O)N1CCCC1)c1ccccc1-2 |
| 196 to 198 °C | CC(C)C(=O)NCCCn1c(CCO)nc2c(N)nc3ccccc3c21 |
| > 250 °C | CN1CC(=O)Nc2ccc(Cl)cc2C1=O |

| melting point | SMILES |
| --- | --- |
| 145 to 148 °C | O=C(O)c1cnn(-c2cccc(C(F)(F)F)c2)c1 |
| 103 °C | COc1ccc2nc(CBr)ccc2c1 |
| 98 to 100 °C | Cc1nn(-c2c(Cl)cc(C(F)(F)F)cc2Cl)nc1CBr |
| 117 to 120 °C | COC(=O)C(C(=O)OC)C(Cc1cc(Cl)ccc1[N+](=O)[O-])c1ccc(OC)cc1 (configuration not stated) |
| 148 to 152 °C | CS(=O)(=O)c1ccc(C(CC2CCCC2)C(=O)Nc2nc3ccccc3[nH]2)cc1C#N (configuration not stated) |
| 89 to 90 °C | Oc1ccccc1C=Nc1cccc(Cl)c1Cl |
| 190 to 192 °C | CCCCC(=O)Nc1cccc2c1C(=O)N(C1(C)CCC(=O)NC1=O)C2=O (configuration not stated) |
| 158 to 161 °C | CCOC(=N)c1ccc(-c2cc3ncn([C@H](C)[C@](O)(Cn4cncn4)c4ccc(F)cc4F)c(=O)c3s2)cc1 |
| 183 to 184 °C | FC(F)(F)c1nnc2ccc(-c3ccccc3)nn12 |
| 119 to 120 °C | Cc1nc2ccc(NCCCN3CCC(OC(c4ccccc4)c4ccccc4)CC3)nn2n1 |
| 213 to 216 °C | COc1cccc(-n2ncc(C(=O)O)c2C(N)=O)c1 |
| > 320 °C | O=c1cc[nH]c2cn[nH]c12 |
| 102 to 104 °C | O=c1ncc(Cl)cn1CC=CCl |
| 140 to 143 °C | CC(=O)n1c(=NC(F)(F)F)oc2ccccc21 |
| 91.5 to 92.5 °C | COC(=O)CNc1cccc(C#N)c1 |
| 77 to 79 °C | COc1ccc(C(=O)CCC2CCN(C(C)=O)CC2)cc1NC(=O)C(F)(F)F |
| 265 to 267 °C | N#Cc1ccc(NC(=O)Nc2ccc(S(N)(=O)=O)cc2)cc1 |
| 91 to 93 °C | COc1ccc(C(=C/C=C/C(=O)NCCCCc2cncc3ccccc23)c2ccc(OC)cc2)cc1 |
| 148 to 172 °C | N#Cc1ccc(-c2cn(-c3ccc(I)cc3)c(SCCO)n2)cc1 |
| 84.5 to 85 °C | CCc1cccc(C)c1N1C(=O)C=CC1=O |
| 182 to 183 °C | CSc1nccc(-c2c(-c3ccc(F)cc3)ncn2C2CCNCC2)n1 |
| 102 to 103 °C | COc1cc(CCCO)c(Br)cc1OCc1ccc(Cl)cc1Cl |
| 89 to 90 °C | COc1cc2c(cc1OCc1ccccc1)C(OC)CN(Cc1cc(OC)c(OC)c(OC)c1)C2 (configuration not stated) |
| > 300 °C | O=C(O)c1cccc2c1Cc1c-2[nH]c2ccc(F)cc12 |

| melting point | SMILES |
| --- | --- |
| 267 to 268 °C | COc1cc(C)cc(C(=O)O)c1C12OC1C(=O)c1c(O)cccc1C2=O (configuration not stated) |
| 130 to 131 °C | Cn1ccnc1Sc1cc(Cl)ccc1[N+](=O)[O-] |
| 88 to 90 °C | CCN1C(=O)N(CC2CC2)c2ccc(Cl)cc2C1c1ccccc1 (configuration not stated) |
| 211 to 213 °C | O=C(c1[nH]c2ccccc2c1Sc1ccccn1)N1CCCC1 |
| 139 to 141 °C | CCC1Cc2cc(OCC#N)c(Cl)c(Cl)c2C1=O (configuration not stated) |
| 129 to 134 °C | CNC(=O)C(=NOC)c1cc(C)c(C)cc1C(ON)=C(C)c1cccc(C(F)(F)F)c1 |
| 152 to 154 °C | Cn1cc(-c2cccc(C(F)(F)F)c2)c(=O)c(-c2cccc(C(F)(F)F)c2)c1 |
| 182 to 184 °C | Cc1cccc(C(=O)c2[nH]c3cc(Cl)ccc3c2CC(=O)O)c1 |
| 49 to 51 °C | CCN(CCNC(=O)c1cnc2cc(I)ccc2n1)CCNc1cccc(Br)n1 |
| 68 to 69.5 °C | CC1(C)C(=O)ON(Cc2ccc(Cl)cc2Cl)C1=O |
| 190 to 191 °C | COCOc1ccccc1-c1cc(-c2ccccc2C(=O)OC)c(C#N)c(NC(=O)c2cccs2)n1 |
| 139 to 140 °C | CSC(=S)NCCNC(C)=O |
| 313 to 315 °C | COc1cc2c(cc1OC)-c1ncc(C(N)=O)c(=O)n1CC2 |
| 204 to 205 °C | Cc1c(NC(=O)c2ccc(-c3ccc(F)cc3)cc2)ccc2cc(CN3CCCC3C3CCCCC3)cnc12 (configuration not stated) |
| 157 °C | CC(C)(Cc1cc2cc(OCc3ccc4occc4n3)ccc2n1Cc1ccc(Cl)cc1)C(=O)O |
| 99 to 101 °C | CC(C)c1cc(OCCCC(=O)OCc2ccccc2)cc2c1C(=O)N(COc1cc(C(F)(F)F)nn1-c1ccccc1)S2(=O)=O |
| 203 to 204 °C | COc1ncc(CN2C(=O)C3(COc4cc5c(cc43)CCO5)c3ccccc32)cn1 (configuration not stated) |
| 124 °C | Cc1cc(C)n(C(=O)CNS(=O)(=O)c2ccc(CC(C)C)cc2)n1 |
| 145 to 150 °C | COC1(C(=O)CCc2ccc(-c3ccc(O)cc3)cc2)C=CC(Cl)=CC1N (configuration not stated) |
| 175 °C | O=C(O)CCNC(=S)Nc1ccc2cn[nH]c2c1 |
| 185 to 187 °C | O=C1NC(=O)C(=Cc2ccc(OCCc3ccccc3)cc2)S1 |
| 115 to 116 °C | CS(=O)(=O)c1ccc(-c2ccccc2C=O)cc1 |
| 265 to 266 °C | Nc1nc2cccnc2c2c1ncn2Cc1cc(-c2ccc(F)cc2)no1 |
| 127 to 129 °C | OCCc1ncn(C(c2ccccc2)(c2ccccc2)c2ccccc2)n1 |

| SMILES | melting point |
| --- | --- |
| O=C(N[C@H]1CN2CCC1CC2)C(O)(c1ccccc1)C1CCCC1 (some centres not stated) | 69.8 to 73.3 °C |
| CC(C)(Cc1c[nH]c2ccccc12)NC[C@H](O)CO | 77 to 77.8 °C |
| C[C@H](NC(=O)OC(C)(C)C)C(=O)NC1N=C(c2ccccn2)c2ccccc2N(C)C1=O (some centres not stated) | 228 to 229 °C |
| NCCc1c[nH]c2cc(Cl)c(NC(N)=O)cc12 | 212 to 213 °C |
| O=c1c2cc(Cl)ccc2nc(CSc2ncnc3[nH]cnc23)n1-c1ccccc1Cl | 237 to 238 °C |
| CC1CC2=CC(=O)CCC2=C2CCC3(C)C(=O)CCC3C21 (configuration not stated) | 204 to 205 °C |
